Publication PMC8296573, “Synthesis and Biological Evaluation of Fingolimod Derivatives as Antibacterial Agents” (ACS Omega, 2021)
Values after ≈ are worked out from the molar mass of the structure shown. Like-named read-outs stand apart in the source and are kept apart here. Marks after values point to notes of the source that are not given here.

Legend:
Experiment in all cases: Antibacterial activity, pre-exposure
P. aeruginosa ATCC 9027 = assay type: cell-based, Pseudomonas aeruginosa; conditions: for Average inhibition %, biofilms viability / Average inhibition %, planktonic cells viability / inhibition at 50 µM / inhibition at 100 µM / inhibition at 150 µM / inhibition at 200 µM: P. aeruginosa ATCC 9027, pre-exposure, ± SD; for inhibition at 50 µM / inhibition at 100 µM / inhibition at 150 µM / inhibition at 200 µM: ATCC9027
How it was run: (§1)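 Bacteria and compound were co-incubated from the start for 18 h at 37 °C, 220 rpm. Planktonic cells scored by turbidity plus resazurin reduction; washed biofilms scored by 20 μM resazurin (30, 60, 90 min for S. aureus, A. baumannii, P. aeruginosa) and ethanol-fixed crystal violet staining.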

S. aureus ATCC 12598 = assay type: cell-based, Staphylococcus aureus; conditions: for Average inhibition %, biofilms viability / Average inhibition %, planktonic cells viability / inhibition at 5 µM / inhibition at 10 µM / inhibition at 15 µM / inhibition at 25 µM: S. aureus ATCC 12598, pre-exposure, ± SD
How it was run: as §1

A. baumannii NCTC 13423 = assay type: cell-based, Acinetobacter baumannii; conditions: A. baumannii NCTC 13423, pre-exposure, ± SD
How it was run: as §1

MIC (P. aeruginosa ATCC 9027; Pseudomonas aeruginosa, ATCC9027, pre-exposure, Inactive = no activity up to 200 μM, > = some inhibition but no MIC reached, read-out: MIC P. aeruginosa ATCC 9027): > 200 µM
MIC P. aeruginosa ATCC 9027 (P. aeruginosa ATCC 9027; pre-exposure, Inactive = no activity up to 200 μM, > = some inhibition but no MIC reached, listed as Fgd): > 200 ^b μM
MIC (S. aureus ATCC 12598; Staphylococcus aureus, ATCC12598, pre-exposure, 18 h, read-out: MIC S. aureus ATCC 12598): 15 µM (≈ 4.61 µg/mL)
Compound: CCCCCCCCc1ccc(CCC(N)(CO)CO)cc1 [fingolimod, Fingolimod]
Average inhibition %, biofilms viability (P. aeruginosa ATCC 9027; 50 µM): 12.4 ± 13.4%
Average inhibition %, planktonic cells viability (P. aeruginosa ATCC 9027; 50 µM): 43.9 ± 35.5%
Average inhibition %, biofilms viability (P. aeruginosa ATCC 9027; 100 µM): 36.5 ± 23.1%
Average inhibition %, planktonic cells viability (P. aeruginosa ATCC 9027; 100 µM): 92.5 ± 4.8%
Average inhibition %, biofilms viability (P. aeruginosa ATCC 9027; 150 µM): 42.4 ± 25.3%
Average inhibition %, planktonic cells viability (P. aeruginosa ATCC 9027; 150 µM): 94.2 ± 3.6%
Average inhibition %, biofilms viability (P. aeruginosa ATCC 9027; 200 µM): 47.5 ± 22.6%
Average inhibition %, planktonic cells viability (P. aeruginosa ATCC 9027; 200 µM): 95 ± 1.2%
inhibition at 50 µM (P. aeruginosa ATCC 9027; Pseudomonas aeruginosa, 50 µM, read-out: Average inhibition %, biofilms biomass): 30.1 ± 16.2%
inhibition at 50 µM (P. aeruginosa ATCC 9027; Pseudomonas aeruginosa, 50 µM, read-out: Average inhibition %, planktonic cells turbidity): 51.5 ± 24%
inhibition at 100 µM (P. aeruginosa ATCC 9027; Pseudomonas aeruginosa, 100 µM, read-out: Average inhibition %, biofilms biomass): 36.9 ± 13.7%
inhibition at 100 µM (P. aeruginosa ATCC 9027; Pseudomonas aeruginosa, 100 µM, read-out: Average inhibition %, planktonic cells turbidity): 85.9 ± 3.6%
inhibition at 150 µM (P. aeruginosa ATCC 9027; Pseudomonas aeruginosa, 150 µM, read-out: Average inhibition %, biofilms biomass): 40.7 ± 17.8%
inhibition at 150 µM (P. aeruginosa ATCC 9027; Pseudomonas aeruginosa, 150 µM, read-out: Average inhibition %, planktonic cells turbidity): 86.8 ± 3.4%
inhibition at 200 µM (P. aeruginosa ATCC 9027; Pseudomonas aeruginosa, 200 µM, read-out: Average inhibition %, biofilms biomass): 45.4 ± 18.5%
inhibition at 200 µM (P. aeruginosa ATCC 9027; Pseudomonas aeruginosa, 200 µM, read-out: Average inhibition %, planktonic cells turbidity): 85.1 ± 3.8%
Average inhibition %, biofilms viability (S. aureus ATCC 12598; 5 µM): 16.9 ± 2.9%
Average inhibition %, planktonic cells viability (S. aureus ATCC 12598; 5 µM): 2.9 ± 2.9%
Average inhibition %, biofilms viability (S. aureus ATCC 12598; 10 µM): 35.8 ± 17.9%
Average inhibition %, planktonic cells viability (S. aureus ATCC 12598; 10 µM): 34 ± 29.5%
Average inhibition %, biofilms viability (S. aureus ATCC 12598; 15 µM): 99.2 ± 0.5%
Average inhibition %, planktonic cells viability (S. aureus ATCC 12598; 15 µM): 99.7 ± 0%
Average inhibition %, biofilms viability (S. aureus ATCC 12598; 25 µM): 99.6 ± 0.3%
Average inhibition %, planktonic cells viability (S. aureus ATCC 12598; 25 µM): 99.7 ± 0%
inhibition at 5 µM (S. aureus ATCC 12598; Staphylococcus aureus, ATCC12598, 5 µM, read-out: Average inhibition %, biofilms biomass): 18.5 ± 17.7%
inhibition at 5 µM (S. aureus ATCC 12598; Staphylococcus aureus, ATCC12598, 5 µM, read-out: Average inhibition %, planktonic cells turbidity): 6.3 ± 8.7%
inhibition at 10 µM (S. aureus ATCC 12598; Staphylococcus aureus, ATCC12598, 10 µM, read-out: Average inhibition %, biofilms biomass): 43.2 ± 15.8%
inhibition at 10 µM (S. aureus ATCC 12598; Staphylococcus aureus, ATCC12598, 10 µM, read-out: Average inhibition %, planktonic cells turbidity): 21.5 ± 27.1%
inhibition at 15 µM (S. aureus ATCC 12598; Staphylococcus aureus, ATCC12598, 15 µM, read-out: Average inhibition %, biofilms biomass): 94.5 ± 1.1%
inhibition at 15 µM (S. aureus ATCC 12598; Staphylococcus aureus, ATCC12598, 15 µM, read-out: Average inhibition %, planktonic cells turbidity): 99.6 ± 0.1%
inhibition at 25 µM (S. aureus ATCC 12598; Staphylococcus aureus, ATCC12598, 25 µM, read-out: Average inhibition %, biofilms biomass): 95.2 ± 0.4%
inhibition at 25 µM (S. aureus ATCC 12598; Staphylococcus aureus, ATCC12598, 25 µM, read-out: Average inhibition %, planktonic cells turbidity): 99.2 ± 0.1%
Average inhibition %, biofilms viability (A. baumannii NCTC 13423; 10 µM): 0.2 ± 0.5%
Average inhibition %, planktonic cells viability (A. baumannii NCTC 13423; 10 µM): 5.9 ± 4.9%
Average inhibition %, biofilms viability (A. baumannii NCTC 13423; 15 µM): 63.6 ± 31.5%
Average inhibition %, planktonic cells viability (A. baumannii NCTC 13423; 15 µM): 74.1 ± 38.2%
Average inhibition %, biofilms viability (A. baumannii NCTC 13423; 25 µM): 97.6 ± 2.3%
Average inhibition %, planktonic cells viability (A. baumannii NCTC 13423; 25 µM): 99.5 ± 0.3%
Average inhibition %, biofilms viability (A. baumannii NCTC 13423; 50 µM): 98.4 ± 1.1%
